Measurements from US12404244B2, “Pan-KIT kinase inhibitor having quinoline structure and application thereof” (Tarapeutics Science Inc., priority 2018, dated 2025).
Read-outs that look alike come from different tables or passages of the source.

Columns and labels:
Format in all cases: cell-based, mouse
[1] = tested on: BaF3; experiment: Proliferation of parental BaF3 cells (CCK-8); settings: for GI50: Mus musculus, read-out: GI50 BaF3
Source text: (§1) Compounds as provided herein were further evaluated for their inhibitory effects on proliferation of cancer cells by testing their effects on growth of cancer cells. In this example the following cells were used: primary mouse B cells BaF3 (purchased from ATCC), GIST-T1 cells of the human gastrointestinal stromal tumor cell line (expressing wild-type KIT gene) (purchased from Cosmo Bio Co., Ltd. (Japan)). The present lab further constructed and used the following: mouse Tel-Kit-BaF3 (stably expressing KIT wild-type kinase), mouse Tel-Kit/T670I-BaF3 (stably expressing KIT T670I mutant kinase), mouse Tel-Kit/V559A-BaF3 (stably expressing KIT V559A mutant kinase), mouse Tel-Kit/V559D-BaF3 (stably expressing KIT V559D mutant kinase), mouse Tel-Kit/V559G-BaF3 (stably expressing KIT V559G mutant kinase), mouse Tel-Kit/V560D-BaF3 (stably expressing KIT V560D mutant kinase), mouse Tel-Kit/L576P-BaF3 (stably expressing KIT L576P mutant kinase), mouse Tel-Kit/V654A-BaF3 (stably expressing KIT V654A mutant kinase), mouse Tel-Kit/V654A/V559D-BaF3 (stably expressing KIT V654A V559D mutant kinase), mouse Tel-Kit/T670E-BaF3 (stably expressing KIT T670E mutant kinase), mouse Tel-Kit/T670I/V559D-BaF3 (stably expressing KIT T670I V559D mutant kinase), mouse Tel-Kit/S709F-BaF3 (stably expressing KIT S709F mutant kinase), mouse Tel-Kit/D816E-BaF3 (stably expressing KIT D816E mutant kinase), mouse Tel-Kit/D816H-BaF3 (stably expressing KIT D816H mutant kinase), mouse Tel-Kit/D820E-BaF3 (stably expressing KIT D820E mutant kinase), mouse Tel-Kit/D820G-BaF3 (stably expressing KIT D820G mutant kinase), mouse Tel-Kit/D820Y-BaF3 (stably expressing KIT D820Y mutant kinase), mouse Tel-Kit/N822K-BaF3 (stably expressing KIT N822K mutant kinase), mouse Tel-Kit/Y823D-BaF3 (stably expressing KIT Y823D mutant kinase), mouse Tel-Kit/A829P-BaF3 (stably expressing KIT A829P mutant kinase), GIST-T1-T670I cells of the human gastrointestinal stromal tumor cell line (expressing KIT-T670I mutant gene). The above cell lines were constructed by: amplifying respectively the sequences of human KIT and various mutant kinase regions of KIT via PCR, inserting the fragments respectively into MSCV-Puro vectors having a N-terminal TEL fragment and/or a NPM fragment and/or a TPR fragment (purchased from Clontech), transfecting mouse BaF3 cells with the vectors by means of retrovirus to obtain stably transfected cells, removing the growth factor IL-3, and thereby eventually obtaining cell lines that depend on the transferred protein KIT or various mutants of KIT. The GIST-T1-T670I (expressing C-KIT-T670I mutant gene) cell line was constructed by our laboratory as follows: designing sgRNA that targeted a region around T670 of the KIT gene with CRISPR Design Tool (website: crispr.mit.edu, Zhang Feng Lab), cloning it into pSpCas9(BB)-2A-Puro vector; co-transfecting cells with the resultant vector and a single-stranded oligonucleotide having T670I site mutation that is near to T670, subjecting the resultant to antibiotics screening, followed by dilution, and monocellular culture in a 96-well plate; validating the site T670 of the cells by sequence detection via Sanger sequencing.
(§2) The cells after incubation were detected using CCK-8 (purchased from MedChem Express, Shanghai, China) cell viability assay kit (CCK-8 may be reduced by dehydrogenase in living cells to a highly water-soluble yellow formazan product, and the amount of the resultant formazan is proportional to the number of living cells), the number of living cells were quantified with a microplate reader, and GI50 of the compounds and the control compounds were calculated (the results shown in Table 2 and Table 3).

[2] = tested on: TEL-KIT-BaF3 (stably expressing KIT wild-type kinase); experiment: Proliferation of TEL-KIT-BaF3 cells (CCK-8); settings: for GI50: Mus musculus, read-out: GI50 TEL-KIT-BaF3
Source text: as §1, §2

[3] = tested on: TEL-KIT/T670I-BaF3; experiment: Proliferation of TEL-KIT/T670I-BaF3 cells (CCK-8); settings: for GI50: Mus musculus, read-out: GI50 TEL-KIT/T670I-BaF3
Source text: as §1

[4] = BaF3 parent cells, 72 hours, CCK-8

Work on COc1cc2nccc(Oc3ccc(NC(=O)Cc4ccc(Cl)c(C(F)(F)F)c4)c(F)c3)c2cc1OC [Example 24, N-(2-fluoro-4-((6,7-dimethoxyquinolin-4-yl)oxy)phenyl)-2-(4-chloro-3-(trifluoromethyl)phenyl)acetamide] yielded a GI50 ([1]; BaF3, 72 h) of 3.21 µM, a GI50 ([2]; 72 h) of 49 nM and a GI50 ([3]; 72 h) of 18 nM.

COc1cc2nccc(Oc3ccc(NC(=O)Cc4ccc(Cl)c(C(F)(F)F)c4)cc3Cl)c2cc1OC [Example 38, N-(3-chloro-4-((6,7-dimethoxyquinolin-4-yl)oxy)phenyl)-2-(4-chloro-3-(trifluoromethyl)phenyl)acetamide] showed a GI50 ([1]; BaF3, 72 h) of 9.45 µM, a GI50 ([2]; 72 h) of 78 nM and a GI50 ([3]; 72 h) of 56 nM.

COc1cc2nccc(Oc3ccc(NC(=O)Cc4cccc(C(F)(F)F)c4)cc3)c2cc1OC [Example 8, N-(4-((6,7-dimethoxyquinolin-4-yl)oxy)phenyl)-2-(3-(trifluoromethyl)phenyl)acetamide] showed a GI50 ([1]; BaF3, 72 h) of 1.89 µM, a GI50 ([2]; 72 h) of 20 nM and a GI50 ([3]; 72 h) of 1 nM.

With COc1cc2nccc(Oc3ccc(NC(=O)NCCCc4ccc(F)cc4)cc3)c2cc1OC [Example 32, 1-(4-((6,7-dimethoxyquinolin-4-yl)oxy)phenyl)-3-(3-(4-fluorophenyl)propyl)urea] the GI50 [1, 4] was 3.85 µM, the GI50 ([2]; KIT wild-type, 72 hours, CCK-8) was 68 nM and the GI50 ([3]; 72 hours, CCK-8) was 15 nM.

With COc1cc2nccc(Oc3ccc(NC(=O)Cc4ccc(C)c(C)c4)cc3)c2cc1OC [Example 11, N-(4-((6,7-dimethoxyquinolin-4-yl)oxy)phenyl)-2-(3,4-dimethylphenyl)acetamide] the GI50 ([1]; BaF3, 72 h) was 6.42 µM, the GI50 ([2]; 72 h) was 27 nM and the GI50 ([3]; 72 h) was 15 nM.

COc1cc2nccc(Oc3ccc(NC(=O)Cc4ccc(F)c(C(F)(F)F)c4)cc3)c2cc1OC [Example 13, N-(4-((6,7-dimethoxyquinolin-4-yl)oxy)phenyl)-2-(4-fluoro-3-(trifluoromethyl)phenyl)acetamide] was tested, and the GI50 ([1]; BaF3, 72 h) was 1.03 µM, the GI50 ([2]; 72 h) was 24 nM and the GI50 ([3]; 72 h) was 13 nM.

In the case of COc1cc2nccc(Oc3ccc(NC(=O)NCCCc4cccc(F)c4)cc3)c2cc1OC [Example 31, 1-(4-((6,7-dimethoxyquinolin-4-yl)oxy)phenyl)-3-(3-(3-fluorophenyl)propyl)urea], the GI50 [1, 4] is reported as 2.48 µM, the GI50 ([2]; KIT wild-type, 72 hours, CCK-8) is reported as 97 nM and the GI50 ([3]; 72 hours, CCK-8) is reported as 16 nM.

For COc1cc2nccc(Oc3ccc(NC(=O)Cc4ccccc4)cn3)c2cc1OC [Comparative Example 1, N-(6-((6,7-dimethoxyquinolin-4-yl)oxy)pyridin-3-yl)-2-phenylacetamide, reference compound], the GI50 ([1]; BaF3, 72 h) was greater than 10 µM, the “inhibitory effect against wild-type KIT” value [2] was “no significant inhibitory effects” and the GI50 ([2]; 72 h) was greater than 10000 nM. For the same compound, the “inhibitory effect against mutant KIT-T670I” value [3] was “no significant inhibitory effects” and the GI50 ([3]; 72 h) was greater than 10000 nM.

With COc1cc2nccc(Oc3ccc(NC(=O)Cc4ccc(C(F)(F)F)cc4)cc3)c2cc1OC [Example 9, N-(4-((6,7-dimethoxyquinolin-4-yl)oxy)phenyl)-2-(4-(trifluoromethyl)phenyl)acetamide] the GI50 ([1]; BaF3, 72 h) was 2.16 µM, the GI50 ([2]; 72 h) was 22 nM and the GI50 ([3]; 72 h) was 11 nM.

For COc1cccc(CC(=O)Nc2ccc(Oc3ncnc4cc(OC)c(OC)cc34)cc2)c1 [Comparative Example 4, N-(4-((6,7-dimethoxyquinazolin-4-yl)oxy)phenyl)-2-(3-methoxyphenyl)acetamide, reference compound], the “selectivity against BaF3” value ([1]; KIT and KIT-T670I relative to parent BaF3 cells) was “weaker selectivity against BaF3”, the GI50 [1, 4] was 3.12 µM and the “inhibitory effect against wild-type KIT” value [2] was “certain inhibitory activity but lower than that of the present invention compounds”. The GI50 ([2]; KIT wild-type, 72 hours, CCK-8) was 183 nM, the “inhibitory effect against mutant KIT-T670I” value [3] was “certain inhibitory activity but lower than that of the present invention compounds” and the GI50 ([3]; 72 hours, CCK-8) was 844 nM.

With COc1cc2nccc(Oc3ccc(NC(=O)NCCCc4ccccc4)cc3)c2cc1OC [Example 30, 1-(4-((6,7-dimethoxyquinolin-4-yl)oxy)phenyl)-3-(3-phenylpropyl)urea] the GI50 [1, 4] was 2.91 µM, the GI50 ([2]; KIT wild-type, 72 hours, CCK-8) was 110 nM and the GI50 ([3]; 72 hours, CCK-8) was 10 nM.

In the case of COc1cc2nccc(Oc3ccc(C(=O)NCc4cccc(C(F)(F)F)c4)cc3)c2cc1OC [Comparative Example 3, N-(3-(trifluoromethyl)benzyl)-4-((6,7-dimethoxyquinolin-4-yl)oxy)benzamide, reference compound], the GI50 [1, 4] is reported as no less than 10 µM, the “inhibitory effect against wild-type KIT” value [2] is reported as “substantially vanished” and the GI50 ([2]; KIT wild-type, 72 hours, CCK-8) is reported as 2350 nM. For the same compound, the “inhibitory effect against mutant KIT-T670I” value [3] was “substantially vanished” and the GI50 ([3]; 72 hours, CCK-8) was 4610 nM.
